This note sets out measurements from patent publication US20250011726A1, “METHODS AND COMPOSITIONS FOR MAINTAINING AGGREGATE STABILITY AND PLURIPOTENCY OF STEM CELLS” (Trailhead Biosystems Inc., priority 2023, published 2025).

For one assay, the system named is hiPSCs. Description: Pluripotency marker expression by flow cytometry and qPCR. It is filed as cell-based, human. The settings on record: for factor contribution (FC), NANOG optimization: MODDE optimizer for NANOG. As to the method: 3 ml sample was taken from each bioreactor on day 4 of the culture for qPCR testing. RNA samples were dissolved in Trizol and extracted. Quantification of RNA was performed on epoch reader. A high-Capacity cDNA RT Kit was used for reverse transcription of RNA samples of each bioreactor. 3 replicate samples of cDNA were obtained from 3 replicate samples of each bioreactor. Data collection was performed using QuantStudio for qPCR testing. The runs were performed per the manufacturer's protocol and recommendations. The primers used were NANOG, SOX2, POU5F1 and GAPDH. The data set obtained was then exported to Excel and normalized against corresponding housekeeping gene GAPDH. Final expression levels were expressed as 1/(2^Crt)×1000 and inputted into the MODDE software. A 3 ml sample was taken from each bioreactor on day 4 of the culture for flow testing. The aggregates were dissociated with Accutase for 10 minutes into single cells. Cells were resuspended in PBS and divided into samples for intracellular staining and cells for extracellular staining. Sample for intracellular staining were fixed with a live/dead stain FVS 780, then permeabilized and stained for OCT4 and SOX2.
Pluripotency data was assessed at the end of the experiment through Immunohistochemistry (IHC), flow cytometry and qPCR testing. The experiment was divided into two batches of experiments to be run at different times. Three replicated center point experiments with all five additives at mid-concentrations were used and split between the batches for normalization and model evaluation purposes. The optimization criteria were based on multiple attributes related to aggregate stability, cell growth and pluripotency. Mathematical models were generated and tuned for maximal predictive power and fit. The model responses for each parameter were statistically evaluated for model reproducibility, model validity, fit (R2) and prediction precision (Q2). […] The model had model validity above 0.25 indicating the absence of problems related to outliers and transformation issues.
Attaining maximal growth conditions of iPSC is not meaningful unless the iPSC state characteristics is also maintained. […] At the end of the experiment, using flow cytometry we tested for SSEA4, OCT4, SOX2 and TRA-1-60 while a complimentary q-PCR assessment was conducted for NANOG, OCT4 and SOX2. The results of these experiments were used to model the effect of the additives on pluripotency. […] This is because that until proven that individual factors are not in regulatory conflict (i.e., SOX2, NANOG, or OCT4 being subject to differential control), single-response factor optimization is prudent. As we found, these factors are indeed subject to differential control.

For another assay, the system named is hiPSC aggregates. Description: Aggregate size, deviation and Aggregate % Error in bioreactor. It is filed as cell-based, human. The settings on record: DS and pluronic F68 at low concentrations; heparin sodium salt and PEG present; FIG. 4B. As to the method: Samples from the bioreactor were taken after slightly mixing using a pipette to avoid sampling bias and gradient formation after settling. 3 ml total was sampled daily for 3 samples of 1 ml for cell count. The cells were first dissociated using Accutase and incubated for 10minutes. Cells were then quenched with E8 then centrifuged at 400×g for 6 minutes. The pellet was resuspended in the same volume of PBS. Samples were then analyzed for total cell count using Attune flow. 3 replicate counts were collected for each bioreactor for each day of culture. 2 samples were collected for aggregate imaging of 500 ul and put on a 24 well plate. EVOS 7000 was used for bright field images of the aggregates. […] A minimum of 30 aggregates were measured for each bioreactor every day of the culture. […] The cell counts were also analyzed for doubling time using GraphPad Prism. […] Using the aggregate size generated from day 1 from all bioreactors and their corresponding cell growth rate, a predicted aggregate size was calculated for day 3 and compared to the actual size measured. The predicted aggregate size was calculated from theoretical aggregate volume. […]
From the cell number, the predicted aggregate volume (V3P) was calculated again from the first equation. […] This is calculated by subtracting the predicted from the actual average size measured and divided by the actual value: […]

Setting [1] is: coefficients of flow and qPCR markers, FIG. 3B.

For “Heparin sodium salt [reference compound]”, in the assay on hiPSCs, the “factor contribution (FC), NANOG optimization” value was determined as 21.12. Further, the “contribution factor, optimizer for target aggregate % error of 0” value in the assay with hiPSC aggregates was 21.71.

For dextran sulfate [DS], the “factor contribution (FC), NANOG optimization” value with hiPSCs is on record as 48.04. Further, in the assay with hiPSCs (setting [1]), the “impact on NANOG (coefficient)” value is reported as “positive” and the “impact on OCT4 (coefficient)” value is “negative”. In the assay on hiPSC aggregates, the “contribution factor, optimizer for target aggregate % error of 0” value was 28.05.
